This is an account of results in patent US12378543B2, “Compositions for hemolysis and coagulation regulation and stabilization of extracellular vesicles” (STRECK LLC, priority 2017, dated 2025).

The test system of this test is cell-free RNA (cfRNA). In words: Total cfRNA in plasma after whole blood storage (Qubit RNA HS fluorometric analysis). To be noted: preservative added singly on ACD-A background, 7 days at room temperature, FIG. 6. An excerpt:
Plasma was isolated and cfRNA extracted using a commercially available kit (Qiagen, QIAamp Circulating Nucleic Acid Isolation Kit). Resultant cfRNA was quantified using the Qubit RNA HS Assay (Invitrogen). Results are the mean with standard deviation from 3 healthy donors.
The working hypothesis for the container (e.g., blood collection tube) that comprises a composition of the disclosure was that cell-free RNA (cfRNA), including messenger RNA, micro-RNA, non-coding RNA, etc., is stable in blood plasma via encapsulation within extracellular vesicles (EVs). Thus, because aspects of the disclosure are directed to stabilizing draw-time concentrations of cfRNA, the goal was to maintain the initial concentration of EVs. […] In the experiments, the functional components of the RNAx BCT are the preservatives imidazolidinyl urea (IDU) and α-cyclodextrin. The experiments were designed to test whether each of the foregoing components acted singly (additive effect) or whether the combination provided an unexpected, more pronounced outcome (synergistic effect).
On the background of the basal anti-coagulant, ACD-A, each of the preservatives (i.e., IDU and α-cyclodextrin) was added singly (at the same concentration utilized in the RNAx BCT) or together. […]

Regarding `OC[C@H]1O[C@@H]2O[C@H]3[C@H](O)[C@@H](O)[C@@H](O[C@H]4[C@H](O)[C@@H](O)[C@@H](O[C@H]5[C@H](O)[C@@H](O)[C@@H](O[C@H]6[C@H](O)[C@@H](O)[C@@H](O[C@H]7[C@H](O)[C@@H](O)[C@@H](O[C@H]1[C@H](O)[C@H]2O)O[C@@H]7CO)O[C@@H]6CO)O[C@@H]5CO)O[C@@H]4CO)O[C@@H]3CO` [α-cyclodextrin], the “effect on increases in total cfRNA levels (in words)” value is “did limit increases in levels of cfRNA”.
